Data published in patent US20240076287A1, “SOLID FORMS OF A CDK2 INHIBITOR” (PFIZER INC., priority 2020, published 2024).
Each block holds one compound with its values, some of them ahead of it.

Experiments:
[1] = slurry stability experiments (solid form by PXRD); format: physicochemical; conditions: for Final Form: slurry in 2-propanol/water, Aw 0.9
Experimental: Slurry experiments were conducted as follows. The indicated starting form of PF-07104091 was transferred to a 2 mL vial. The indicated solvent or solvent mixture was added to obtain a slurry at the specified temperature (Table 14). Additional solids were added as necessary to ensure a sufficiently thick slurry. A magnetic stir bar was added and the vial was tightly capped to prevent solvent loss. The resulting slurry was left to stir at the specified temperature. Aliquots were pulled from the slurry periodically or after a certain duration. Solids were separated from the liquid by centrifuge filtration and the solids were characterized by powder x-ray diffraction. […] (ambient), and 40° C.

[2] = moisture sorption (DVS) study; format: physicochemical

- Final Form ([1]; 4 °C): Form 3
- Final Form ([1]; ambient): Form 3
Compound: COCc1cc(C(=O)Nc2cc([C@H]3CC[C@@H](OC(=O)NC(C)C)C3)[nH]n2)n(C)n1 [Form 1, (1R,3S)-3-[3-({[3-(methoxymethyl)-1-methyl-1H-pyrazol-5-yl]carbonyl}amino)-1H-pyrazol-5-yl]cyclopentyl propan-2-ylcarbamate]

- solid form of the post moisture sorption material ([2]; PXRD after DVS): no change in solid form
- mass gain ([2]; at 60% RH): ~0.7%
- mass gain ([2]; at 75% RH): ~1%
- mass gain ([2]; at 90% RH): ~1.6%
- hygroscopicity ([2]; moisture sorption (DVS)): slightly hygroscopic
Compound: COCc1cc(C(=O)Nc2cc([C@H]3CC[C@@H](OC(=O)NC(C)C)C3)[nH]n2)n(C)n1 [PF-07104091 (Form 2), (1R,3S)-3-[3-({[3-(methoxymethyl)-1-methyl-1H-pyrazol-5-yl]carbonyl}amino)-1H-pyrazol-5-yl]cyclopentyl propan-2-ylcarbamate]

- thermodynamic stability of the solid form ([1]; at 4° C., ˜25° C. (ambient), and 40° C.): thermodynamically most stable form
Compound: COCc1cc(C(=O)Nc2cc([C@H]3CC[C@@H](OC(=O)NC(C)C)C3)[nH]n2)n(C)n1 [PF-07104091 monohydrate (Form 3), (1R,3S)-3-[3-({[3-(methoxymethyl)-1-methyl-1H-pyrazol-5-yl]carbonyl}amino)-1H-pyrazol-5-yl]cyclopentyl propan-2-ylcarbamate]
